5 compounds from the supplement of paper PMC13380429 can be followed below.

As usually defined, the cell viability is a read-out of living cells in per cent, often relative to untreated cells.

Some results are limits rather than exact numbers.

Common to all, as to conditions: 72 h
Assay [1] concerns Calu-3. Put plainly: drug sensitivity score (DSS) for viability; higher = more toxic; extreme values may be limits of the assay.
Assay [2] concerns Caco-2. The assay is described as above.
The test system of assay [3] is HepG2. Described as above.
In assay [4] the test system is Calu-3. Put plainly: relative viability EC50 (midpoint between 100% and the lowest measured viability); higher = less toxic.
The test system of assay [5] is Caco-2. The assay is described as above.
Assay [6] has as its system HepG2. Described as above.
For assay [7], the system named is Calu-3. The assay can be described thus: cell viability relative to DMSO; higher = less toxic.
Assay [8] has as its system Caco-2. The description is as above.
Assay [9] concerns HepG2. The assay is described as above.
The subject of assay [10] is U2OS. Put plainly: drug sensitivity score (DSS) for viability; higher = more toxic; extreme values may be limits of the assay.
Assay [11] concerns Vero E6. Described as above.
The test system of assay [12] is U2OS. The assay can be described thus: relative viability EC50 (midpoint between 100% and the lowest measured viability); higher = less toxic.
Assay [13] has as its system Vero E6. Described as above.
The test system of assay [14] is U2OS. The assay can be described thus: cell viability relative to DMSO; higher = less toxic.
In assay [15] the test system is Vero E6. Described as above.

In the case of `c1coc(CNc2ncnc3[nH]cnc23)c1` [kinetin], the drug sensitivity score in the assay on Calu-3 [1], in the assay on Caco-2 [2] and in the assay on HepG2 [3] was 0 each time. Also, the “relative viability EC50” value in the assay on Calu-3 [4], in the assay with Caco-2 [5] and in the assay with HepG2 [6] was more than 10 µM each time. Also, the cell viability with Calu-3 [7] (1 nM) came to 95.7%; with Calu-3 [7] (10 nM), 100%; in the assay with Calu-3 [7] (100 nM), 101%; with Calu-3 [7] (1000 nM), 98.4%; with Calu-3 [7] (10000 nM), 99.3%; in the assay on Caco-2 [8] (1 nM), 111%. In addition, the cell viability with Caco-2 [8] (10 nM) is 104%; in the assay on Caco-2 [8] (100 nM) it was 106%; in the assay with Caco-2 [8] (1000 nM), 98.9%; with Caco-2 [8] (10000 nM), 96.6%; in the assay on HepG2 [9] (1 nM) it was 110%; with HepG2 [9] (10 nM), 108%. In addition, the values for the cell viability in the assay with HepG2 [9] (100 nM), in the assay with HepG2 [9] (1000 nM) and with HepG2 [9] (10000 nM) were 99%, 98.7% and 109%, respectively.

Consider `Cc1ccc(NC(=O)C2(c3ccc4c(c3)OC(F)(F)O4)CC2)nc1-c1cccc(C(=O)O)c1` [lumacaftor], for which the drug sensitivity score in the assay with Calu-3 [1] and with Caco-2 [2] was 0 each time. The “relative viability EC50” value in the assay with Calu-3 [4] and with Caco-2 [5] was more than 10 µM throughout. In addition, the cell viability in the assay with Calu-3 [7] (1 nM) was found to be 113%; in the assay with Calu-3 [7] (10 nM) it was 103%; in the assay on Calu-3 [7] (100 nM) it was 101%; in the assay with Calu-3 [7] (1000 nM) it was 98.6%; in the assay on Calu-3 [7] (10000 nM), 108%; in the assay on Caco-2 [8] (1 nM), 106%. The cell viability in the assay on Caco-2 [8] (10 nM) was 103%; in the assay with Caco-2 [8] (100 nM) it was 106%; in the assay on Caco-2 [8] (1000 nM) it was 92.3%; in the assay with Caco-2 [8] (10000 nM) it was 93.8%.

As for `CN1CCN(c2c(F)cc3c(=O)c(C(=O)O)cn4c3c2SCC4)CC1` [rufloxacin], the drug sensitivity score came to 0 with U2OS [10]; 0 in the assay with Vero E6 [11]; 0 in the assay on Calu-3 [1]; 1.7 with Caco-2 [2]; 0 in the assay on HepG2 [3]. Moreover, the “relative viability EC50” value in the assay on U2OS [12], in the assay with Vero E6 [13], in the assay on Calu-3 [4] and in the assay with HepG2 [6] was more than 10 µM in each case. The cell viability with U2OS [14] (1 nM) was 99.8%; with U2OS [14] (10 nM), 100%; with U2OS [14] (100 nM), 94.7%; in the assay on U2OS [14] (1000 nM), 104%; in the assay on U2OS [14] (10000 nM), 96.8%; with Vero E6 [15] (1 nM), 99.9%. The cell viability with Vero E6 [15] (10 nM) came out at 101%; in the assay with Vero E6 [15] (100 nM), 96.4%; in the assay with Vero E6 [15] (1000 nM), 101%; with Vero E6 [15] (10000 nM) it was 95.7%; in the assay on Calu-3 [7] (1 nM), 92.1%; with Calu-3 [7] (10 nM) it was 103%. In addition, the cell viability was 97.5% in the assay with Calu-3 [7] (100 nM); 84.4% in the assay with Calu-3 [7] (1000 nM); 101% with Calu-3 [7] (10000 nM); 95.1% in the assay with Caco-2 [8] (1 nM); 105% in the assay with Caco-2 [8] (10 nM); 93.9% in the assay on Caco-2 [8] (100 nM). Also, the cell viability in the assay on Caco-2 [8] (1000 nM) amounted to 91.7%; with Caco-2 [8] (10000 nM), 73.8%; with HepG2 [9] (1 nM) it was 98.9%; with HepG2 [9] (10 nM) it was 99.5%; in the assay on HepG2 [9] (100 nM), 104%; in the assay with HepG2 [9] (1000 nM), 103%. In the assay on HepG2 [9] (10000 nM), the cell viability stood at 92.2%.

Regarding `CC(=O)c1ccc2c(c1)C(=O)C1(CC1)O2` [spizofurone], the drug sensitivity score in the assay with U2OS [10], in the assay with Vero E6 [11], in the assay on Calu-3 [1] and in the assay on HepG2 [3] was 0 in each case.

Take `COc1ccc(-n2nc(CCC(=O)N(C)O)cc2-c2ccc(Cl)cc2)cc1` [tepoxalin]: the drug sensitivity score in the assay with U2OS [10] turned out to be 2.8; in the assay with Vero E6 [11] it was 1.7; with Calu-3 [1] it was 0; in the assay with Caco-2 [2] it was 2.1; in the assay on HepG2 [3] it was 1.6. For the same compound, the “relative viability EC50” value in the assay with Calu-3 [4] is more than 10 µM. For the same compound, the cell viability was determined as 97.1% with U2OS [14] (1 nM); 95.7% in the assay on U2OS [14] (10 nM); 96.7% in the assay on U2OS [14] (100 nM); 94.6% in the assay on U2OS [14] (1000 nM); 61.8% in the assay with U2OS [14] (10000 nM); 98.2% in the assay with Vero E6 [15] (1 nM). Also, the cell viability was determined as 99.9% in the assay with Vero E6 [15] (10 nM); 99.5% in the assay on Vero E6 [15] (100 nM); 99.9% with Vero E6 [15] (1000 nM); 64.7% in the assay on Vero E6 [15] (10000 nM); 97.5% in the assay on Calu-3 [7] (1 nM); 110% in the assay on Calu-3 [7] (10 nM). Besides, the cell viability in the assay with Calu-3 [7] (100 nM) is 102%; with Calu-3 [7] (1000 nM) it was 106%; in the assay with Calu-3 [7] (10000 nM) it was 110%; in the assay on Caco-2 [8] (1 nM) it was 103%; with Caco-2 [8] (10 nM), 112%; in the assay on Caco-2 [8] (100 nM) it was 116%. The cell viability is 99.4% with Caco-2 [8] (1000 nM); 59.8% with Caco-2 [8] (10000 nM); 107% in the assay with HepG2 [9] (1 nM); 106% in the assay with HepG2 [9] (10 nM); 96.4% with HepG2 [9] (100 nM); 96.6% in the assay on HepG2 [9] (1000 nM). Also, the cell viability in the assay on HepG2 [9] (10000 nM) amounted to 73.8%.
